pIC50, pKi: −log10 of the molar value.
How the values were obtained:
[1] = system: induction of TAT by dexamethasone in HepG2 cells; test: Hep G2 TAT assay (inhibition of dexamethasone-induced TAT); format: cell-based, human; conditions: challenge of 100 nM dexamethasone, IC50 converted to Ki by Cheng and Prusoff equation
Method: Glucocorticoid mediated activation of TAT occurs by transactivation of glucocorticoid response elements in the TAT promoter by glucocorticoid receptor-agonist complex. The following protocol describes an assay for measuring induction of TAT by dexamethasone in HepG2 cells (a human liver hepatocellular carcinoma cell line; ECACC, UK).
TAT activity was measured as outlined in the literature by A. Ah et al., J. Med. Chem., 2004, 47, 2441-2452.
HepG2 cells were cultured using MEME media supplemented with 10% (v/v) foetal bovine serum; 2 mM L-glutamine and 1% (v/v) NEAA at 37° C., 5%/95% (v/v) CO2/air. The HepG2 cells were counted and adjusted to yield a density of 0.125×10^6 cells/ml in RPMI 1640 without phenol red, 10% (v/v) charcoal stripped FBS, 2 mM L-glutamine and seeded at 25,000 cells/well in 200 μl into 96 well, sterile, tissue culture micro titre plates, and incubated at 37° C., 5% CO2 for 24 hours
Growth media was removed and replaced with assay media {RPMI 1640 without phenol red, 2 mM L-glutamine+10 μM forskolin}. Test compounds were screened against a challenge of 100 nM dexamethasone. Compounds were serially half log diluted in 100% (v/v) dimethylsulphoxide from a 10 mM stock.
Test compounds were pre-incubated with cells in micro-titre plates for 30 minutes at 37° C., 5/95 (v/v) CO2/air, before the addition of 100 nM dexamethasone and then subsequently for 20 hours to allow optimal TAT induction.
HepG2 cells were then lysed with 30 μl of cell lysis buffer containing a protease inhibitor cocktail for 15 minutes at 4° C. […] After 2 hours incubation at 37° C. the reaction was terminated by the addition of 15 μl of 10M aqueous potassium hydroxide solution, and the plates incubated for a further 30 minutes at 37° C. The TAT activity product was measured by absorbance at λ 340 nm.
[compound] and fitting the data to a 4 parameter logistic equation. IC50 values were converted to Ki (equilibrium dissociation constant) using the Cheng and Prusoff equation, assuming the antagonists were competitive inhibitors with respect to dexamethasone.

[2] = molecular target: glucocorticoid receptor (GR) recombinant ligand binding domain (LBD) (Homo sapiens (Human), UniProt P04150); test: GR binding fluorescence polarisation (FP) assay; conditions: displacement of fluorescently tagged ligand
Method: Binding of test compounds to the glucocorticoid receptor (GR) is determined using a fluorescence polarisation (FP) assay utilising a recombinant ligand binding domain (LBD) of GR. The test compounds are assessed by their ability to displace a fluorescently tagged ligand and detection of the resulting decrease in fluorescence polarisation.

glucocorticoid receptor (GR) recombinant ligand binding domain (LBD), sequence (P04150 524-758): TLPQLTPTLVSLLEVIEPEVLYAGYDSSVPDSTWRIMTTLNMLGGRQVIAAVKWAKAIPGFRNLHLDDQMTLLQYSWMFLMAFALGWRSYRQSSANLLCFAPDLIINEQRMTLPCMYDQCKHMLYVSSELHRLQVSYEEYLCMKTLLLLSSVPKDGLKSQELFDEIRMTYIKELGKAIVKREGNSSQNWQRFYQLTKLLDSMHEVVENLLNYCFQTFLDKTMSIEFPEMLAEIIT

| SMILES | pKi [1] | pIC50 [2] |
| --- | --- | --- |
| Cc1cc2c(cnn2-c2ccc(=O)n(C)c2)cc1C1(C(C)c2ccccc2)CCN(S(=O)(=O)c2cnn(C)n2)C1 (centres unmarked) [Example 274, 1-methyl-5-(6-methyl-5-(1-((2-methyl-2H-1,2,3-triazol-4-yl)sulfonyl)-3-(1-phenylethyl)pyrrolidin-3-yl)-1H-indazol-1-yl)pyridin-2(1H)-one] | 6.54 | 7.09 |
| COc1cc2c(cnn2-c2ccc(F)cc2)cc1N1CCN(S(C)(=O)=O)C2(CC2)C1 [Example 70] | 5.80 | 7.55 |
| Cc1cc2c(cnn2-c2ccc(=O)n(C)c2)cc1C1(Cc2ccccc2)CCN(C(=O)C(C)(F)F)C1 (centres unmarked) [Example 328, 5-(5-(3-benzyl-1-(2,2-difluoropropanoyl)pyrrolidin-3-yl)-6-methyl-1H-indazol-1-yl)-1-methylpyridin-2(1H)-one] | 6.96 | 7.74 |
| CCCn1cc(S(=O)(=O)N2CCC(Cc3cccnc3)(c3cc4cnn(-c5ccc(F)cc5)c4cc3C)C2)cn1 (centres unmarked) [Example 149] | 6.97 | 7.89 |
| CCCn1cc(S(=O)(=O)N(CCOC)[C@@H]2CCN(c3cc4cnn(-c5ccc(F)cc5)c4cc3C)C2)cn1 [Example 122] | 6.81 | 7.85 |
| Cc1cc2c(cnn2-c2cccc(C(=O)NC3CCOC3)c2)cc1N1CCN(S(C)(=O)=O)C2(CC2)C1 (centres unmarked) [Example 85] | 5.85 | 6.79 |
| CCCn1cc(N(C)S(=O)(=O)C2CCN(c3cc4cnn(-c5ccc(F)cc5)c4cc3C)C2)cn1 (centres unmarked) [Example 30, 1-(1-(4-fluorophenyl)-6-methyl-1H-indazol-5-yl)-N-methyl-N-(1-propyl-1H-pyrazol-4-yl)pyrrolidine-3-sulfonamide] | 6.69 |  |
| COc1ccc(-n2ncc3cc(C4(Cc5ccccc5)CCN(S(=O)(=O)c5cnn(C)n5)C4)c(C)cc32)cn1 (centres unmarked) [Example 236, 5-(3-benzyl-1-((2-methyl-2H-1,2,3-triazol-4-yl)sulfonyl)pyrrolidin-3-yl)-1-(6-methoxypyridin-3-yl)-6-methyl-1H-indazole] | 7.09 |  |
| CCCn1cc(S(=O)(=O)N2C[C@H]3CN(c4cc5cnn(-c6ccc(F)cc6)c5cc4C)C[C@H]3C2)cn1 [Example 93] | 6.67 |  |
| Cc1cc2c(cnn2-c2ccc(F)cc2)cc1C1(COc2ccccc2)CCN(S(=O)(=O)c2cnn(C)c2)C1 (centres unmarked) [Example 344, 1-(4-fluorophenyl)-6-methyl-5-(1-((1-methyl-1H-pyrazol-4-yl)sulfonyl)-3-(phenoxymethyl)pyrrolidin-3-yl)-1H-indazole] | 7.01 |  |
| CCCn1cc(S(=O)(=O)N2CCN(c3cc4cnn(-c5ccc(F)cc5)c4cc3C)[C@@H](C)C2)cn1 [Example 87] | 7.38 |  |
| Cc1cc2c(cnn2-c2ccc(F)cc2)cc1C1(Cc2ccccc2)CCN(C(=O)Cc2csc3ccccc23)C1 (centres unmarked) [Example 202, 2-(benzo[b]thiophen-3-yl)-1-(3-benzyl-3-(1-(4-fluorophenyl)-6-methyl-1H-indazol-5-yl)pyrrolidin-1-yl)ethan-1-one] | 7.17 |  |
| Cc1cc2c(cnn2-c2ccc(F)cc2)cc1C1(Cc2ccccc2)CCN(S(=O)(=O)c2cn(C)cn2)C1 (centres unmarked) [Example 210, 5-(3-benzyl-1-((1-methyl-1H-imidazol-4-yl)sulfonyl)pyrrolidin-3-yl)-1-(4-fluorophenyl)-6-methyl-1H-indazole] | 7.39 |  |
| Cc1cc2c(cnn2-c2ccc(F)cc2)cc1C1(CCCc2ccccc2)CCN(S(=O)(=O)c2cnn(C)c2)C1 (centres unmarked) [Example 346, 1-(4-fluorophenyl)-6-methyl-5-(1-((1-methyl-1H-pyrazol-4-yl)sulfonyl)-3-(3-phenylpropyl)pyrrolidin-3-yl)-1H-indazole] | 6.85 |  |
| CCCn1cc(S(=O)(=O)N2CCC(Cc3ccccc3)(c3ccc4c(cnn4-c4ccc(F)cc4)c3)C2)cn1 (centres unmarked) [Example 159] | 7.00 |  |
| Cc1cc2c(cnn2-c2cc(C#N)c(=O)n(C)c2)cc1C1(Cc2ccccc2)CCN(S(=O)(=O)c2cnn(C)n2)C1 (centres unmarked) [Example 245, 5-(5-(3-benzyl-1-((2-methyl-2H-1,2,3-triazol-4-yl)sulfonyl)pyrrolidin-3-yl)-6-methyl-1H-indazol-1-yl)-1-methyl-2-oxo-1,2-dihydropyridine-3-carbonitrile] | 6.72 |  |

| SMILES | pKi [1] | pIC50 [2] |
| --- | --- | --- |
| CCCn1cc(S(=O)(=O)N2C[C@H](C)N(c3cc4cnn(-c5ccc(F)cc5)c4cc3C)C[C@H]2C)cn1 [Example 82] | 7.19 |  |
| Cc1cc2c(cnn2-c2ccc(=O)n(C)c2)cc1C1(Cc2ccccc2)CCN(S(=O)(=O)c2cnn(C(F)F)c2)C1 (centres unmarked) [Example 280, 5-(5-(3-benzyl-1-((1-(difluoromethyl)-1H-pyrazol-4-yl)sulfonyl)pyrrolidin-3-yl)-6-methyl-1H-indazol-1-yl)-1-methylpyridin-2(1H)-one] | 7.38 |  |
| Cc1cc2c(cnn2-c2cccc(C(=O)NC3CCOC3)c2)cc1C1=CCN(S(C)(=O)=O)CC1 (centres unmarked) [Example 146] | 6.03 |  |
| Cc1cc2c(cnn2-c2ccn(C)c(=O)c2)cc1C1(Cc2ccccc2)CCN(S(=O)(=O)c2cnn(C)n2)C1 (centres unmarked) [Example 244, 4-(5-(3-benzyl-1-((2-methyl-2H-1,2,3-triazol-4-yl)sulfonyl)pyrrolidin-3-yl)-6-methyl-1H-indazol-1-yl)-1-methylpyridin-2(1H)-one] | 6.08 |  |
| Cc1cc2c(cnn2-c2ccc(=O)n(C)c2)cc1C1(Cc2ccccc2)CCN(S(=O)(=O)c2cnn(CC(C)C)c2)C1 (centres unmarked) [Example 319, 5-(5-(3-benzyl-1-((1-isobutyl-1H-pyrazol-4-yl)sulfonyl)pyrrolidin-3-yl)-6-methyl-1H-indazol-1-yl)-1-methylpyridin-2(1H)-one] | 7.34 |  |
| CCCn1cc(S(=O)(=O)N(C)[C@H]2CCN(c3cc4cnn(-c5ccc(F)cc5)c4cc3OC)C2)cn1 [Example 118] | 5.79 |  |
| Cc1cc(S(=O)(=O)N2CCC(Cc3ccccc3)(c3cc4cnn(-c5ccc(=O)n(C)c5)c4cc3C)C2)n(C)n1 (centres unmarked) [Example 283, 5-(5-(3-benzyl-1-((1,3-dimethyl-1H-pyrazol-5-yl)sulfonyl)pyrrolidin-3-yl)-6-methyl-1H-indazol-1-yl)-1-methylpyridin-2(1H)-one] | 7.19 |  |
| Cc1cc(-n2ncc3cc(C4(Cc5ccccc5)CCN(S(=O)(=O)c5cnn(C)n5)C4)c(C)cc32)ccn1 (centres unmarked) [Example 240, 5-(3-benzyl-1-((2-methyl-2H-1,2,3-triazol-4-yl)sulfonyl)pyrrolidin-3-yl)-6-methyl-1-(2-methylpyridin-4-yl)-1H-indazole] | 7.14 |  |
| Cc1cc2c(cnn2-c2ccc(F)cc2)cc1C1(Cc2nccs2)CCN(S(=O)(=O)c2cnn(C)c2)C1 (centres unmarked) [Example 188] | 6.76 |  |
| Cc1cc2c(cnn2-c2ccc(F)cc2)cc1N1CCN(S(=O)(=O)c2cnn(C3CCOC3)c2)C2(CC2)C1 (centres unmarked) [Example 79] | 7.08 |  |
| CCCn1cc(S(=O)(=O)N2CCC(c3cc4cnn(-c5ccc(F)cc5)c4cc3Cl)CC2)cn1 [Example 140] | 7.30 |  |
| COc1cc(OCCCC(=O)N2CCC(Cc3ccccc3)(c3cc4cnn(-c5ccc(F)cc5)c4cc3C)C2)ccc1CO (centres unmarked) [Example 199, 1-(3-benzyl-3-(1-(4-fluorophenyl)-6-methyl-1H-indazol-5-yl)pyrrolidin-1-yl)-4-(4-(hydroxymethyl)-3-methoxyphenoxy)butan-1-one] | 7.48 |  |
| Cc1cc2c(cnn2-c2ccc(F)cc2)cc1C1(Cc2ccccc2)CCN(C(=O)c2cnn(C)c2)C1 (centres unmarked) [Example 19, (3-benzyl-3-(1-(4-fluorophenyl)-6-methyl-1H-indazol-5-yl)pyrrolidin-1-yl)(1-methyl-1H-pyrazol-4-yl)methanone] | 6.85 |  |
| Cc1cc2c(cnn2-c2ccc(=O)n(C(C)C)c2)cc1C1(Cc2ccccc2)CCN(S(=O)(=O)c2cnn(C)n2)C1 (centres unmarked) [Example 269, 5-(5-(3-benzyl-1-((2-methyl-2H-1,2,3-triazol-4-yl)sulfonyl)pyrrolidin-3-yl)-6-methyl-1H-indazol-1-yl)-1-isopropylpyridin-2(1H)-one] | 5.89 |  |
| Cc1cc2c(cnn2-c2ccc(F)cc2)cc1C1(Cc2ccccc2)CCN(C(=O)c2cncnc2)C1 (centres unmarked) [Example 196, (3-benzyl-3-(1-(4-fluorophenyl)-6-methyl-1H-indazol-5-yl)pyrrolidin-1-yl)(pyrimidin-5-yl)methanone] | 7.10 |  |
| COc1ccccc1-c1noc(CCC(=O)N2CCC(Cc3ccccc3)(c3cc4cnn(-c5ccc(F)cc5)c4cc3C)C2)n1 (centres unmarked) [Example 201, 1-(3-benzyl-3-(1-(4-fluorophenyl)-6-methyl-1H-indazol-5-yl)pyrrolidin-1-yl)-3-(3-(2-methoxyphenyl)-1,2,4-oxadiazol-5-yl)propan-1-one] | 7.32 |  |
